Experimental findings from US20230271964A1, “5-AMINO-8-(4-PYRIDYL)-[1,2,4]TRIAZOLO[4,3-C]PYRIMIDIN-3-ONE COMPOUNDS FOR USE AGAINST CANCER” (ASTRAZENECA AB, priority 2020, published 2023) are described below.

The structures appear in SMILES notation.

Assay [1] concerns the target human adenosine A1 receptor (Homo sapiens (Human), UniProt P30542). Description: Adenosine receptor inhibition binding assay, [3H]DPCPX, A1 receptor membranes. The settings on record: 1 nM [3H]DPCPX, 25° C., 1 h; Ki from IC50 by Cheng-Prusoff. The gist of the method: (§1)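 Membranes from BacMam-transduced HEK293 cells (0.2 µg A2A; 1.4 µg A1) incubated 1 h at 25 °C with 1 nM radioligand; A2A in 50 mM Tris-HCl pH 7.4, A1 buffer adds 100 mM NaCl, 10 mM MgCl2. Nonspecific binding: 1 µM CGS 15943 (A2A) or 1 µM DPCPX (A1). Filtration, scintillation counting; IC50 converted to Ki via Cheng-Prusoff.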

Assay [2] concerns the target human adenosine A2A receptor (Homo sapiens (Human), UniProt P29274). Description: Adenosine receptor inhibition binding assay, [3H]ZM241385, HEK293 A2A receptor membranes. The conditions noted are these: 1 nM [3H]ZM241385, HEK293-hA2A membranes, 25° C., 1 h; Ki from IC50 by Cheng-Prusoff. The gist of the method: as §1
The target in assay [3] is human CB-1 cannabinoid receptor (Homo sapiens (Human), UniProt P21554). Description: CB-1 receptor radioligand binding assay, [3H]CP 55940, transfected CHO cell membranes. The settings on record: 0.5 nM [3H]CP 55940, CHO cell membranes, 120 min at 37° C. As for the experimental part:
Nonspecific binding is determined in the presence of 10 µM WIN 55212-2.
Following incubation, the samples are filtered rapidly under vacuum through glass fiber filters (GF/B, Packard) presoaked with 0.3% PEI and rinsed several times with an ice-cold buffer containing 50 mM Tris-HCl (pH 7.4) and 0.5% BSA using a 96-sample cell harvester (Unifilter, Packard). The filters are dried then counted for radioactivity in a scintillation counter (Topcount, Packard) using a scintillation cocktail (Microscint 0, Packard).
The standard reference compound is CP 55940 which is tested in each experiment at several concentrations to obtain a competition curve from which its IC50 is calculated.

A further assay concerns the target human CB1 receptor (Homo sapiens (Human), UniProt P21554). As to the kind of experiment: CB1 receptor antagonism, agonist-induced cAMP modulation (HTRF) in transfected CHO cells. The class given is cell-based. The conditions noted are these: read-out: Antag IC50. The protocol:
Receptor antagonism: Evaluation of the antagonist activity of compounds at the human CB1 receptor expressed in transfected CHO cells, determined by measuring their effects on agonist-induced cAMP modulation using the HTRF detection method.
Thereafter, the reference agonist CP 55940 and the adenylyl cyclase activator NKH 477 are added at respective final concentrations of 3 nM and 3 µM.
For basal control measurements, CP 55940 is omitted from the wells containing 3 µM AM 281.
Following 20 min incubation at 37° C., the cells are lysed and the fluorescence acceptor (D2-labeled cAMP) and fluorescence donor (anti-cAMP antibody labeled with europium cryptate) are added.
After 60 min at room temperature, the fluorescence transfer is measured at λex=337 nm and λem=620 and 665 nm using a microplate reader (Rubystar, BMG). The cAMP concentration is determined by dividing the signal measured at 665 nm by that measured at 620 nm (ratio).
The standard reference antagonist is AM 281, which is tested in each experiment at several concentrations to generate a concentration-response curve from which its IC50 value is calculated.
In general terms: Time-resolved FRET reads energy transfer from a long-lived donor to a nearby acceptor.

Sequence of human adenosine A2A receptor (P29274 whole entry): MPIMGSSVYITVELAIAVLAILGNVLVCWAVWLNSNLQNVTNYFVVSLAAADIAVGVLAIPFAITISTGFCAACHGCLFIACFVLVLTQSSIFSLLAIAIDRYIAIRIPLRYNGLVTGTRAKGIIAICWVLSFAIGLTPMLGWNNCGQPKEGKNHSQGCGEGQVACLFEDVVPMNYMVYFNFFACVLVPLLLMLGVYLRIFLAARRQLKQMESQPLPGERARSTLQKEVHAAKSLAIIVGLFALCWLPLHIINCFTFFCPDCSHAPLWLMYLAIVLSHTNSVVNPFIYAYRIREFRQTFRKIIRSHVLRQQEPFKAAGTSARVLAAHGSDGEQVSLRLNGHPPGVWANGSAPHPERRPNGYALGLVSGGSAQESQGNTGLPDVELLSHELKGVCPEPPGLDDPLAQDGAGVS
Sequence of human CB-1 cannabinoid receptor (P21554 whole entry): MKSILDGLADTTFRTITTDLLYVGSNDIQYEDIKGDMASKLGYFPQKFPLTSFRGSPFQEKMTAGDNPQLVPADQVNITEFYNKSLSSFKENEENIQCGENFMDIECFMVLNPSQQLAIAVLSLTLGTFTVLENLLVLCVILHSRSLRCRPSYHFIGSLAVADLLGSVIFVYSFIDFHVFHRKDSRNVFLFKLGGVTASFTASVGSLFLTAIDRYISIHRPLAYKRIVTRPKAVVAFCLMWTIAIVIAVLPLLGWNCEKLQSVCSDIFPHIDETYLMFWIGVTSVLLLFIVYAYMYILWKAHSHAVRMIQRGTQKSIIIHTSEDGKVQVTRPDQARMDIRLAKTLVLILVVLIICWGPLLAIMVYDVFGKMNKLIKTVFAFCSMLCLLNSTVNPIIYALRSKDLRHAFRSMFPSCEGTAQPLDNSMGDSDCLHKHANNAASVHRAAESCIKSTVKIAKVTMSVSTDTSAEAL
Sequence of human CB1 receptor (P21554 whole entry): as above
Sequence of human adenosine A1 receptor (P30542 whole entry): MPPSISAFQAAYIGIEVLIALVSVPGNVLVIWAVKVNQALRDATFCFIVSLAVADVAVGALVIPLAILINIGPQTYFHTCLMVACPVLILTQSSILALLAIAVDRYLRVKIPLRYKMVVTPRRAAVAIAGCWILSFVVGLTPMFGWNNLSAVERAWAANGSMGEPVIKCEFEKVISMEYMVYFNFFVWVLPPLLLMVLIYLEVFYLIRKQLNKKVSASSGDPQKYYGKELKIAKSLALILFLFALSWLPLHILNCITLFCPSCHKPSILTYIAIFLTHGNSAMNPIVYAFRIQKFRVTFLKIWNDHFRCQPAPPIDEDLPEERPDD

Broadly, the Ki is the equilibrium dissociation constant of an inhibitor or competing ligand from its target. For orientation: IC50 means the midpoint of a concentration-inhibition curve. Regarding `COc1cc(-c2c(-c3ccc(F)cc3)nc(N)n3c(=O)n(Cc4ncoc4C)nc23)cc(CO)n1` [Example 1-64, 5-amino-7-(4-fluorophenyl)-8-[2-(hydroxymethyl)-6-methoxy-4-pyridyl]-2-[(5-methyloxazol-4-yl)methyl]-[1,2,4]triazolo[4,3-c]pyrimidin-3-one], the “A1 pKi” value in assay [1] came to 6.5. In addition, the “A2A pKi” value in assay [2] is reported as 9.6. Also, the affinity in assay [3], expressed as Ki, was 40.8 µM. Also, the IC50 at human CB1 receptor is > 100 µM.

For `Cc1cc(-c2c(-c3ccccc3)nc(N)n3c(=O)n(CC4CCCN4Cc4ccccc4CN)nc23)cc(C)n1` (stereo not drawn) [Example 3-4, 5-amino-2-[[1-[[2-(aminomethyl)phenyl]methyl]pyrrolidin-2-yl]methyl]-8-(2,6-dimethyl-4-pyridyl)-7-phenyl-[1,2,4]triazolo[4,3-c]pyrimidin-3-one], the “A1 pKi” value in assay [1] was determined as 6.3. For the same compound, in assay [2], the “A2A pKi” value was 8.4. Besides, in assay [3], affinity was put at a Ki of 76.4 µM. Also, the IC50 on human CB1 receptor is > 100 µM.

On to `Cc1cc(-c2c(-c3ccccc3)nc(N)n3c(=O)n(Cc4cc(C)on4)nc23)cc(C)n1` [Example 1-14, 5-amino-8-(2,6-dimethyl-4-pyridyl)-2-[(5-methylisoxazol-3-yl)methyl]-7-phenyl-[1,2,4]triazolo[4,3-c]pyrimidin-3-one], for which the “A1 pKi” value in assay [1] was 6.6. In addition, the “A2A pKi” value in assay [2] was 9.2. The inhibition constant Ki in assay [3] was 50.5 µM. Further, on human CB1 receptor, the IC50 stood at 29.2 µM.
